For eight compounds, CMC results are on record in patent publication US20250154195A1, “NOVEL BETULIN DERIVATIVES, AND THEIR MANUFACTURING METHOD AND USE AS SURFACTANT” (priority 2022, published 2025).

Assay in the first data set: not given
As to conditions: non-ionic surfactants, literature values; cited from earlier work.
With Brij 35, the CMC was 0.1 mM.
Turning to Triton X-100, the CMC is listed as 0.2 mM.
On to fructose oleate, for which the CMC is reported as 0.4 mM.
As to sucrose monolaurate, the CMC is given as 0.45 mM.

A short description of another data set: Critical micelle concentration (CMC) in water by the stalagmometric method (surface tension vs. concentration). In kind it is physicochemical.
Conditions: not given
How it is done:
CMC of mono and di-hydrophilic moiety derivatized betulin derivatives were determined according to the stalagmometric method, which is one of the most common methods for measuring surface tension. Samples were prepared at different concentration of mono and di-hydrophilic moiety derivatized betulin derivatives. The surface tension of samples was calculated from the number of drops obtained by stalagmometer. CMC was calculated by plotting surface tensions vs. concentrations of sample.
CMCs of mono-glycosylated betulin, di-glycosylated betulin, mono-(poly) ethoxylated-carbonated betulin and di-(poly) ethoxylated betulin were determined in water, respectively. Surface tensions of samples obtained in above examples were determined at different concentrations according to the stalagmometric method.
CMC of mono-hydrophilic moiety derivatized betulin derivatives were determined according to the stalagmometric method, which is one of the most common methods for measuring surface tension. Samples were prepared at different concentration of mono-hydrophilic moiety derivatized betulin derivatives. The surface tension of samples was calculated from the number of drops obtained by stalagmometer. CMC was calculated by plotting surface tensions vs. concentrations of sample.
CMCs of two mono-hydrophilic functionalized betulin at C28-hydroxy and C3-hydroxy group were determined in water, respectively. Surface tensions of samples obtained in above examples were determined at different concentrations according to the stalagmometric method. And CMC was obtained as 0.6 mM (Betulin-carbonate-polyether (PEA) from Example 10), and 0.5 mM (Betulin-carbonate-polyether (PEG) from Example 11), respectively, by plotting surface tensions vs. concentrations of sample.
The compound `C=C(C)[C@@H]1CC[C@]2(COC3OC(CO)C(O)C(O)C3O)CC[C@]3(C)C(CCC4[C@@]5(C)CC[C@H](OC6OC(CO)C(O)C(O)C6O)C(C)(C)C5CC[C@]43C)C12` (some centres unmarked) [di-glycosylated betulin, diglucose-betulin] gave a CMC of 1.0 mM.
The same measure, in the same setting: for `C=C(C)[C@@H]1CC[C@]2(COC3OC(CO)C(O)C(O)C3O)CC[C@]3(C)C(CCC4[C@@]5(C)CC[C@H](O)C(C)(C)C5CC[C@]43C)C12` (some centres unmarked) [mono-glycosylated betulin, glucose-betulin] the value was 0.8 mM; for Betulin-carbonate-polyether (PEA), 0.6 mM; for Betulin-carbonate-polyether (PEG), 0.5 mM.
